Source: the supplement of paper PMC10307832

How the values were obtained:
Test in all cases: relative viability (nuclei count vs DMSO), 5 days (fraction); higher = more cells survive
[1] = compound: COC1=C(C=C(C=C1)C2=CC3=NC=CN3C(=N2)NC4=C(C=CC=N4)C(=O)N)OC [BAY61-3606] + Nc1ncn([C@H]2C[C@H](O)[C@@H](CO)O2)c(=O)n1 [Decitabine] (partner 2 µM)
Method in brief: (§1)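 Values are medians from duplicate plates. Each reflects relative viability, defined as the nuclei count of treated wells over that of vehicle wells. Lung cancer cell lines in 1536-well plates were pin-tool dosed one day after seeding with one drug alone or with a fixed anchor-drug dose plus five library-drug doses (not always all listed) in √10 steps, then fixed, stained and imaged at 4× after 5 days.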

[2] = compound: COc1cccc2c1C(=O)c1c(O)c3c(c(O)c1C2=O)C[C@@](O)(C(=O)CO)C[C@@H]3O[C@H]1C[C@H](N)[C@H](O)[C@H](C)O1 [Doxorubicin] + CC1(C)CCC(c2ccc(Cl)cc2)=C(CN2CCN(c3ccc(C(=O)NS(=O)(=O)c4ccc(N[C@H](CCN5CCOCC5)CSc5ccccc5)c(S(=O)(=O)C(F)(F)F)c4)cc3)CC2)C1 [Navitoclax] (partner 0.5 µM)
Method in brief: as §1

[3] = compound: COC1=C(C=C(C=C1)C2=CC3=NC=CN3C(=N2)NC4=C(C=CC=N4)C(=O)N)OC [BAY61-3606] + COc1cc2c(Oc3ccc(NC(=O)C4(C(=O)Nc5ccc(F)cc5)CC4)cc3F)ccnc2cc1OCCCN1CCOCC1 [Foretinib] (partner 0.25 µM)
Method in brief: as §1

[4] = compound: COc1cccc2c1C(=O)c1c(O)c3c(c(O)c1C2=O)C[C@@](O)(C(=O)CO)C[C@@H]3O[C@H]1C[C@H](N)[C@H](O)[C@H](C)O1 [Doxorubicin] + Nc1ncn([C@H]2C[C@H](O)[C@@H](CO)O2)c(=O)n1 [Decitabine] (partner 2 µM)
Method in brief: as §1

Cell Line | relative viability ([1]; first compound 0.02 µM) | relative viability ([1]; first compound 0.06325 µM) | relative viability ([1]; first compound 0.2 µM) | relative viability ([1]; first compound 0.6325 µM) | relative viability ([1]; first compound 2 µM) | relative viability ([2]; first compound 0.001 µM) | relative viability ([2]; first compound 0.003162 µM) | relative viability ([2]; first compound 0.01 µM) | relative viability ([2]; first compound 0.03162 µM) | relative viability ([2]; first compound 0.1 µM) | relative viability ([3]; first compound 0.02 µM) | relative viability ([3]; first compound 0.06325 µM) | relative viability ([3]; first compound 0.2 µM) | relative viability ([3]; first compound 0.6325 µM) | relative viability ([3]; first compound 2 µM) | relative viability ([4]; first compound 0.001 µM) | relative viability ([4]; first compound 0.003162 µM) | relative viability ([4]; first compound 0.01 µM) | relative viability ([4]; first compound 0.03162 µM) | relative viability ([4]; first compound 0.1 µM)
EPLC-272H | 0.409 | 0.403 | 0.369 | 0.396 | 0.33 | 1.11 | 1.37 | 0.971 | 1.11 | 1.05 | 0.705 | 0.6 | 0.789 | 0.694 | 0.397 | 0.382 | 0.324 | 0.32 | 0.387 | 0.423
HCC-366 | 0.379 | 0.433 | 0.396 | 0.354 | 0.296 |  | 1.03 | 0.99 | 0.809 | 1.07 | 0.934 | 0.942 | 0.93 | 0.924 | 0.893 | 0.334 | 0.35 | 0.281 | 0.309 | 0.334
PC-14 |  | 0.244 | 0.246 | 0.203 | 0.226 | 0.997 | 1.1 | 0.973 | 1.01 | 0.945 | 0.992 | 0.957 | 0.911 | 0.963 | 0.931 | 0.246 | 0.228 | 0.238 | 0.0977 | 0.0677
SW 1573 | 0.526 | 0.553 | 0.467 | 0.511 | 0.325 | 0.849 | 1.09 | 1.04 | 0.526 | 0.196 | 1.18 | 0.872 | 0.81 | 0.839 | 0.757 | 0.566 | 0.417 | 0.166 | 0.129 | 0.098
COR-L 105 | 0.764 | 0.672 | 0.543 | 0.63 | 0.475 | 0.965 | 0.721 | 0.724 | 0.48 | 0.377 | 1.32 | 1.36 | 0.884 | 1.05 | 0.605 | 0.626 | 0.734 | 0.506 | 0.53 | 0.384
NCI-H322M | 0.747 | 0.666 | 0.662 | 0.706 | 0.657 | 1.18 | 1.19 | 1.15 | 1.31 | 1.26 | 1.12 | 0.91 | 0.981 | 1.03 | 0.831 | 0.757 | 0.58 | 0.735 | 0.688 | 0.553
NCI-H1395 | 0.824 | 0.709 | 0.799 | 0.661 | 0.686 | 0.992 | 1 | 1.07 | 0.861 | 0.898 | 1.13 | 0.934 | 0.951 | 0.995 | 0.807 | 0.724 | 0.666 | 0.634 | 0.614 | 0.651
PC-3 [JPC-3] | 0.822 | 0.711 | 0.848 | 0.947 | 0.781 | 0.746 | 0.79 | 0.703 | 0.802 | 0.819 |  | 1.03 | 1.08 | 1.06 | 0.949 | 0.765 | 0.803 | 0.907 | 0.829 | 0.732
NCI-H1975 | 0.394 | 0.416 | 0.438 | 0.421 | 0.271 | 1.2 | 1.22 | 1.06 | 0.791 | 0.569 | 1.06 | 0.931 | 0.874 | 0.974 | 0.65 | 0.391 | 0.393 | 0.392 | 0.317 | 0.322
SK-LU-1 | 0.715 | 0.725 | 0.575 | 0.621 | 0.428 | 0.811 | 0.631 | 0.806 | 0.301 | 0.218 | 0.863 | 0.863 | 0.745 | 0.758 | 0.408 | 0.68 | 0.745 | 0.554 | 0.445 | 0.473
A549 | 0.222 | 0.261 | 0.224 | 0.237 | 0.198 | 1.15 | 0.977 | 0.468 | 0.0557 | 0.0324 | 1.11 | 0.989 | 0.853 | 0.969 | 0.809 | 0.245 | 0.266 | 0.257 | 0.179 | 0.235
NCI-H2170 | 0.449 | 0.529 | 0.485 | 0.462 | 0.429 | 0.584 | 0.726 | 0.567 | 0.389 | 0.597 | 0.993 | 1.03 | 1.02 | 0.523 | 0.782 | 0.498 | 0.472 | 0.435 | 0.396 | 0.491
NCI-H2023 | 0.221 | 0.297 | 0.237 | 0.266 | 0.19 | 0.956 | 1.05 | 0.886 | 0.482 | 0.16 | 0.864 | 0.906 | 1.03 | 0.812 | 0.812 | 0.209 | 0.219 | 0.171 | 0.0903 | 0.0802
201T | 0.87 | 0.923 | 0.864 | 0.896 | 0.834 | 1.16 | 1.19 | 1.2 | 1.24 | 1.21 | 1.19 | 1.05 | 1.13 | 1.17 | 1.11 | 0.899 | 0.879 | 0.824 | 0.835 | 0.804
NCI-H2405 | 0.798 | 0.78 | 0.703 | 0.779 | 0.643 |  | 0.779 | 0.851 | 0.639 | 0.493 | 1.06 | 1.05 | 1.11 | 1.11 | 0.867 | 0.711 | 0.759 | 0.774 | 0.579 | 0.497
LU99A | 0.926 | 1.01 | 0.966 | 0.804 | 0.559 | 0.783 | 0.919 | 0.867 | 0.554 | 0.801 | 0.915 | 0.656 | 0.858 | 0.63 | 0.526 | 0.954 | 1.07 | 0.951 | 0.972 | 0.945
